Measured values published in patent publication US20100256123A1, “P2X4 RECEPTOR ANTAGONIST” (NIPPON CHEMIPHAR CO., LTD., priority 2006, published 2010).

Molecular target: T1, human P2X4 receptor (Homo sapiens, UniProt Q99571)
T1 sequence (Q99571 1-388): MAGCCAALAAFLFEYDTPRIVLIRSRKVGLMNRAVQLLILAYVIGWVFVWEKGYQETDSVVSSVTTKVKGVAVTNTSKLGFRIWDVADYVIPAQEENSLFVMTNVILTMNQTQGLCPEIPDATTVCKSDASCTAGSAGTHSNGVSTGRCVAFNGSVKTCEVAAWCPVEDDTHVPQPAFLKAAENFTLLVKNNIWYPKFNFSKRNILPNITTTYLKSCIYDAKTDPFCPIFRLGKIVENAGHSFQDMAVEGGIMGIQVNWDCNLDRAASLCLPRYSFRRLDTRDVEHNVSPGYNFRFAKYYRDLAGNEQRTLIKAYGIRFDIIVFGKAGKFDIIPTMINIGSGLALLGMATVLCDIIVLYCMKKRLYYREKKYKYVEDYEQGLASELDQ
Assay: P2X4 receptor antagonism: ATP-induced calcium change (Fura2-AM) in 1321N1 cells stably expressing human P2X4 receptor
Format: cell-based
Details: ATP (10 μm)-induced maximal calcium change = 100% control, compound applied 10 minutes before ATP; for Inhibition ratio % (at 10^−5 M): Pharmacological Experimental 2
Experimental: The P2X4 receptor antagonisms of the compounds according to the invention were determined in the following manner.
(§1) 1321N1 cells were transfected human P2X4 receptor-encoding expression vector using a EUGENE 6 transfection reagent (Roche). After cultivation of one week, it was confirmed that P2X4 receptor was stably expressed. Cells were loaded with Fura2-AM calcium fluorescent dye (SIGMA) and the fluorescence changes were monitored using Aqua-Cosmos (Hamamatsu Photonics). ATP (10 μm)-induced maximal […] calcium change was defined as 100% of control response to calculate the inhibition percentage of test compounds at each concentration. Test compounds were treated onto cells 10 minutes before ATP stimulation.
as §1, with “FuGENE” for “EUGENE”
The experimental procedures of Example 10 were repeated.

SMILES | inhibition ratio (at 10^−5M, Pharmacological Experimental 1) [%] | Inhibition ratio % (at 10^−5 M) [%]
O=C1CN=C(c2cccc(O)c2)c2ccc3ccccc3c2N1 [Example 2, 5-(3-Hydroxyphenyl)-1,3-dihydro-2H-naptho-[1,2-e]-1,4-diazepin-2-one] | 69 | 
O=C1CN=C(c2ccc(O)cc2)c2ccc3ccccc3c2N1 [Example 4, 5-(4-Hydroxyphenyl)-1,3-dihydro-2H-naptho-[1,2-e]-1,4-diazepin-2-one] |  | 53
O=C1CN=C(c2ccc(O)c(O)c2)c2ccc3ccccc3c2N1 [Example 9, 5-(3,4-Dihydroxyphenyl)-1,3-dihydro-2H-naptho[1,2-e]-1,4-diazepin-2-one] |  | 63
